Measurements taken from patent EP0714404B1, “ANTI-INFLAMMATORY PEPTIDES” (CURATIVE TECHNOLOGIES, INC., priority 1993, dated 1995).
Read-outs that look alike come from different tables or passages of the source. Residues, ends and D or L forms follow the SMILES beside them.

What was measured:
Type in all cases: in vivo, mice
[1] = test system: Arachidonic Acid Induced Myeloperoxidase Activity in Mouse Ear; assay: myeloperoxidase activity in AA-treated mouse ear tissue (marker for PMNs); set-up: dose or concentration left out as unconfirmed; settings: Phenidone 100
Procedure: Myeloperoxidase activity in ear tissue was measured as a marker for the presence or absence of polymorphonuclear leukocytes (PMNs) (Barone et al., 1991, J. Neurosci. Res. 29:336-345). After measurement of ear thickness, ears were dissected from the mice and homogenized in 50mM Tris-HCL, pH 7.4 at 4°C to give a 10% (w/v) homogenate. Aliquots of the homogenate were used to determine the amount of myeloperoxidase activity present in the tissue using o-dianisidine (Sigma Chem Co., St. Louis MO) and hydrogen peroxide as substrates and monitoring chromophore generation at 460 nm (Barone et al., 1991, J. Neurosci. Res. 29:336-345).

[2] = test system: Arachidonic Acid Induced Inflammation; assay: mouse ear model, arachidonic acid (AA) induced inflammation, ear thickness
Procedure: (§1) The anti-inflammatory properties of CT-112 (SEQ. ID NO: 1) were assessed using a standardized assay for anti-inflammatory activity, i.e., the mouse ear model in which arachidonic acid (AA) is used to induce an inflammatory reaction (Young et al., 1984, J. Invest. Dermatol. 82:367-371; Doherty, et al., 1988, J. Invest. Dermatol. 91:298-302).
(§2) Female mice (C57BL/6UAF, Charles River Breeding Laboratories, approximately 15-18 g) were obtained and acclimated for 2 weeks prior to use. The animals were approximately 14 weeks old at the start of the study.
(§3) To prepare minipumps for implantation, CT-112 (SEQ. ID NO: 1) was dissolved in PBS. The material was loaded into Alzet minipumps set to deliver 0.05 (5 animals), 0.1 (10 animals), 1 (10 animals), or 2.5 (5 animals) mg of CT-112 (SEQ. ID NO: 1) per animal per day. Minipumps for implantation into control animals contained only PBS. As a positive control, one set of 10 mice received 100 mg/kg of phenidone, a potent 5-lipoxygenase inhibitor which acts as an anti-inflammatory agent, 15 min prior to challenge with AA.
(§4) For subcutaneous implantation of minipumps, animals were anesthetized with Ketamine/Xylazine. The Ketamine (Aveco Lot #440140) was injected at 80 mg/kg and the Xylazine (Rugby Laboratories Lot #26040-B) at 16 mg/kg and the Alzet pumps were implanted subcutaneously in the dorsothoracic area. Animals were allowed to recover and then housed and given food and water ad libitum for 5 days.
(§5) On the sixth day following pump implantation, 0.01 ml of AA was applied to the inner and outer surfaces of the right ear by means of an automatic microliter pipette. One hr following AA application, the mice were sacrificed and ear thickness was measured with a Mitutoyo No. 7300 Gauge Caliper. The left ears were also measured as an internal control.
(§6) Mice were implanted with Alzet mini-pumps set to deliver 60 mg/kg/day for either 7, 3, or 1 days. A separate group of 5 mice received 3 intraperitoneal injections of CT-112 (60 mg/kg/injection) at 24, 1 and 0.25 hr prior to AA challenge. CT-112 (SEQ. ID NO: 1) was prepared for injection by dissolving the compound in Dulbecco's PBS to give a final CT-112 (SEQ. ID NO: 1) concentration of 5 mg/ml. The control mice were implanted with Alzet minipumps that delivered PBS for 7 days. The AA challenge was the same as described supra in Example 7.
(§7) Administration of CT-112 (SEQ. ID NO: 1) (60 mg/kg/injection) via multiple intraperitoneal injections was performed at the following times prior to AA challenge: • a) 6, 3, 1 and 0.25 hr; • b) 3, 1 and 0.25 hr; or • c) 1 and 0.25 hr.
(§8) In addition, the effect of a single administration of CT-112 (SEQ. ID NO: 1) (60 mg/kg) by intraperitoneal injection was performed at either 1 or 3 hr prior to AA challenge. Control mice had Alzet minipumps implanted to deliver PBS for 7 days prior to AA challenge. The AA challenge was the same as described supra in Example 7. The results of the multiple dosing regimens and the 1 hr and 3 hr single dosing regimens were compared to the anti-inflammatory activity of CT-112 (SEQ. ID NO: 1) delivered via Alzet minipump set to deliver 60 mg/kg/day for 7 days using 5 animals per treatment.
In a separate experiment, the effect of multiple intraperitoneal injections of CT-112 (SEQ. ID NO: 1) at either 6, 3, 1 and 0.25 hr, or 16, 3, 1 and 0.25 hr prior to AA challenge was assessed. […]

[3] = test system: Delayed Type Hypersensitivity; assay: mouse model of delayed-type hypersensitivity induced by DNCB; settings: Prednisone ip 25 mg/kg, 2 hr prior to challenge
Procedure: CT-112 (SEQ. ID NO: 1) was tested for its ability to modulate the immune response in a mouse model of delayed hypersensitivity (Filipp et al., 1984, Allergy, 39: 499-507; Diezel et al., 1989 J. Invest. Dermatol. 93:322-326). The mice used in this study were 8-wk old hairless females (Jackson Laboratories). The mice were sensitized to a contact allergen (1-chloro-2,4-dinitrobenzene, DNCB) by painting the dorsothoracic region twice daily for 5 consecutive days with 50 µl of 0.5% DNCB in 75% acetone:25% vegetable oil. The animals were allowed to rest for 24 hr prior to challenge with DNCB. On the sixth day after initiation of the sensitization treatments, the animals were challenged with 50 µl of DNCB solution applied to the left ear. After 24 hrs, the ear thickness was determined and compared to the unchallenged ear.
The treatment groups were as follows: • a) PBS control; • b) Prednisone (intraperitoneal injection of 25 mg/kg, 2 hr prior to challenge); • c) 7-day pump (60 mg CT-112/kg/24 hr); • d) CT-112 (intraperitoneal injections of 60 mg/kg/injection at 3, 1, and 0.25 hr prior to challenge and 3, 6 and 21 hr post-challenge); • e) DMSO control (topical application of 50 µl at 3, 1 and 0.25 hr prior to challenge; and • f) CT-112 in DMSO (20 mg/ml, topical application of 50 µl at 3, 1, and 0.25 hr prior to challenge and 3, 6 and 21 hr post-challenge).

[4] = test system: Arachidonic Acid Induced Inflammation; settings: mouse, in vivo
Procedure: as §1, §2, §3, §4, §5, §6, §7, §8
In a separate experiment, the effect of multiple intraperitoneal injections of CT-112 (SEQ. ID NO: 1) at either 6, 3, 1 and 0.25 hr, or 16, 3, 1 and 0.25 hr prior to AA challenge was assessed. The results of both multi-dosing regimens were compared to both phenidone (100 mg/kg administered 15 min prior to AA challenge) and CT-112 (SEQ. ID NO: 1) administered via Alzet mini-pump (60 mg/kg/day for 7 days). For this latter study, the number of animals receiving the single injection of CT-112 (SEQ. ID NO: 1) was increased from 5 to 10.
Administration to mice of CT-112 (SEQ. ID NO: 1) (60 mg/kg/injection) via multiple subcutaneous injections prior to AA challenge was performed at: • a) 6, 3, 1 and 0.25 hr; • b) 3, 1 and 0.25 hr; or • c) 1 and 0.25 hr. […]

[5] = Table V, Phenidone 100 mg/kg 15 min prior to AA

O=C1CCN(c2ccccc2)N1 [Phenidone]
Myeloperoxidase Activity [1]: 14.5 ± 8.6 µmole of chromophore formed/min
Ear Thickness ([2]; Phenidone 100mg/kg, 15 min prior to AA, 1 hr after AA): 0.01176 ± 0.0008 (10) in
% Inhibition of Inflammation ([2]; Table III, Phenidone 100 mg/kg): 88%
Thickness Difference (Left-Right) ([2]; Table III, Phenidone 100 mg/kg): 0.00073 ± 0.00153 in
% Inhibition of Inflammation [2, 5]: 84.2%
Thickness Difference (Left-Right) [2, 5]: 0.00102 ± 0.00038(5) in

C[C@]12C=CC(=O)C=C1CC[C@@H]1[C@@H]2C(=O)C[C@@]2(C)[C@H]1CC[C@]2(O)C(=O)CO [Prednisone]
% Inhibition of Inflammation [3]: 96.7%
Thickness Difference (Left-Right) ([3]; 24 hrs after DNCB): 0.00014 ± 0.000446 in

CC(C)[C@H](NC(=O)[C@H](CCC(N)=O)NC(=O)[C@H](CO)NC(=O)[C@@H](NC(=O)[C@@H](N)[C@@H](C)O)[C@@H](C)O)C(=O)O [CT-114, Thr-Thr-Ser-Gln-Val] (H-TTSQV-OH)
% Inhibition of Inflammation ([4]; 6 mg/kg/day): 59.3%
% Inhibition of Inflammation ([4]; 60 mg/kg/day): 62.4%
